Test results published in patent publication US11963948B1, “2-(4-chlorophenyl)-4,5-bis(4-chlorophenyl)-1H-imidazole as an antimicrobial compound” (KING FAISAL UNIVERSITY, priority 2023, dated 2024).

Assays:
[1] = tested on: Bacillus cereus; experiment: Agar plate disc-diffusion, antibacterial activity, Bacillus cereus; type: cell-based; details: Bacillus cereus (Gram positive), nutrient agar, 37° C., 48 h
Description: (§1) The agar plate disc-diffusion method was applied. […] The discs were then placed onto the surface of agar plates (nutrient agar for bacteria and Sabouraud's dextrose agar for fungi) seeded with the test organism. Each plate contained 15 mL of the agar medium, previously seeded with 0.2 mL of the broth culture of each organism pregrown for 18 hours. The plates were incubated at 37° C. for 48 h, and 72 h for fungi. The inhibition zones were measured in mm. Discs impregnated with DMSO were used as a control, and its inhibition zone was subtracted from the tested compound actual inhibition zone.

[2] = tested on: Staphylococcus aureus; experiment: Agar plate disc-diffusion, antibacterial activity, Staphylococcus aureus; type: cell-based; details: Staphylococcus aureus (Gram positive), nutrient agar, 37° C., 48 h
Description: as §1

[3] = tested on: Pseudomonas aeruginosa; experiment: Agar plate disc-diffusion, antibacterial activity, Pseudomonas aeruginosa; type: cell-based; details: Pseudomonas aeruginosa (Gram negative), nutrient agar, 37° C., 48 h
Description: as §1

[4] = tested on: Escherichia coli; experiment: Agar plate disc-diffusion, antibacterial activity, Escherichia coli; type: cell-based; details: Escherichia coli (Gram negative), nutrient agar, 37° C., 48 h
Description: as §1

[5] = tested on: Aspergillus flavus; experiment: Agar plate disc-diffusion, antifungal activity, Aspergillus flavus; type: cell-based; details: Sabouraud's dextrose agar, 37° C., 72 h
Description: The agar plate disc-diffusion method was applied. Sterilized filter papers (6 mm in diameter) were wetted with 10 μL of a solution of 2-(4-chlorophenyl)-4,5-bis(4-chlorophenyl)-1H-imidazole (IV) to be tested, containing 10 mg/mL in DMSO, and the discs were allowed to air dry. The discs were then placed onto the surface of agar plates (nutrient agar for bacteria and Sabouraud's dextrose agar for fungi) seeded with the test organism. Each plate contained 15 mL of the agar medium, previously seeded with 0.2 mL of the broth culture of each organism pregrown for 18 hours. The plates were incubated at 37° C. for 48 h, and 72 h for fungi. The inhibition zones were measured in mm. Discs impregnated with DMSO were used as a control, and its inhibition zone was subtracted from the tested compound actual inhibition zone.

[6] = tested on: Chrysosporium keratinophilum; experiment: Agar plate disc-diffusion, antifungal activity, Chrysosporium keratinophilum; type: cell-based; details: Sabouraud's dextrose agar, 37° C., 72 h
Description: as §1

[7] = A = concentration of comp. = 10,000 μL
[8] = B = concentration of comp. = 30,000 μL
[9] = C = concentration of comp. = 50,000 μL
[10] = A = concentration of comp. = 10,000 µg/mL

Question: What does the source list for `O=C(O)c1cn(C2CC2)c2cc(N3CCNCC3)c(F)cc2c1=O` [Cip., ciprofloxacin, reference compound]?
Answer: inhibition zone [1, 7]: 29 mm; inhibition zone [1, 8]: 30 mm; inhibition zone [1, 9]: 42 mm; inhibition zone [2, 7]: 43 mm; inhibition zone [2, 8]: 44 mm; inhibition zone [2, 9]: 53 mm; inhibition zone [3, 10]: 29 mm; inhibition zone [3, 8]: 30 mm; inhibition zone [3, 9]: 53 mm; inhibition zone [4, 7]: 30 mm; inhibition zone [4, 8]: 39 mm; inhibition zone [4, 9]: 60 mm; inhibition zone [5, 7]: 29 mm; inhibition zone [5, 8]: 30 mm; inhibition zone [5, 9]: 42 mm; inhibition zone [6, 7]: 29 mm; inhibition zone [6, 8]: 30 mm; inhibition zone [6, 9]: 53 mm

Question: Which inhibition zone [1, 7] does the source give for `Clc1ccc(-c2nc(-c3ccc(Cl)cc3)c(-c3ccc(Cl)cc3)[nH]2)cc1` [IV, 2-(4-chlorophenyl)-4,5-bis(4-chlorophenyl)-1H-imidazole] here?
Answer: 25 mm

Question: And the inhibition zone [1, 8]?
Answer: 27 mm

Question: What about the inhibition zone [1, 9] of the same molecule?
Answer: 40 mm

Question: What about the inhibition zone [2, 7] of the same molecule?
Answer: 17 mm

Question: And the inhibition zone [2, 8]?
Answer: 23 mm

Question: And the inhibition zone [2, 9]?
Answer: 34 mm

Question: What about the inhibition zone [3, 10] of the same molecule?
Answer: 24 mm

Question: And the inhibition zone [3, 8]?
Answer: 26 mm

Question: And the inhibition zone [3, 9]?
Answer: 43 mm

Question: What about the inhibition zone [4, 7] of the same molecule?
Answer: 25 mm

Question: What about the inhibition zone [4, 8] of the same molecule?
Answer: 30 mm

Question: What about the inhibition zone [4, 9] of the same molecule?
Answer: 48 mm

Question: What about the inhibition zone [5, 7] of the same molecule?
Answer: 23 mm

Question: And the inhibition zone [5, 8]?
Answer: 25 mm

Question: What about the inhibition zone [5, 9] of the same molecule?
Answer: 33 mm

Question: What about the inhibition zone [6, 7] of the same molecule?
Answer: 22 mm

Question: And the inhibition zone [6, 8]?
Answer: 27 mm

Question: And the inhibition zone [6, 9]?
Answer: 40 mm

Question: And the melting point?
Answer: 211 to 212 °C
